The record followed here is the CheMixHub viscosity set.

Where “and” joins values, the source holds several entries; their conditions need not be identical. Identical values can stand only once. ± gives the uncertainty stated by the source.

On to `C1CC[NH2+]C1.CCCCCCCC(=O)[O-]`, for which the viscosity (293.15 K, 101 kPa) is 72.2 ± 15 mPa·s; the viscosity (298.15 K, 101 kPa) is reported as 62.71 ± 13 mPa·s; the viscosity (303.15 K, 101 kPa) is given as 50.21 ± 10 mPa·s; the viscosity (308.15 K, 101 kPa) came out at 42.89 ± 8.7 mPa·s; the viscosity (313.15 K, 101 kPa) turned out to be 35.27 ± 7.1 mPa·s.

Turning to `CC(=O)O.CC(=O)[O-].CC[NH+](CC)CCO`, the viscosity came to 110.4 ± 3.1 mPa·s (293.15 K, 101 kPa); 80.19 ± 2.1 mPa·s (298.15 K, 101 kPa); 59.63 ± 1.6 mPa·s (303.15 K, 101 kPa); 45.32 ± 1.2 mPa·s (308.15 K, 101 kPa); 35.12 ± 0.92 mPa·s (313.15 K, 101 kPa); 27.71 ± 0.73 mPa·s (318.15 K, 101 kPa). Further, the viscosity (323.15 K, 101 kPa) is listed as 22.22 ± 0.58 mPa·s.

Consider `CC(O)CC(C)(C)O` (configuration not stated), for which the viscosity runs as follows: (308.15 K, 101 kPa) 20.29 ± 2 mPa·s and 20.37 ± 2 mPa·s; (318.15 K, 101 kPa) 17.79 ± 1.8 mPa·s and 17.73 ± 1.8 mPa·s.

For the compound `CCCCOCCOCCO`, the viscosity runs as follows: (298.15 K, 100 kPa) 5.11 ± 0.15 mPa·s; (298.15 K, 101 kPa) 4.877 ± 0.065 mPa·s; (298.15 K, 101.33 kPa) 5.232 ± 0.057 mPa·s and 5.232 ± 0.12 mPa·s; (303.15 K, 100 kPa) 4.345 ± 0.15 mPa·s; (308.15 K, 100 kPa) 3.872 ± 0.15 mPa·s; (308.15 K, 101 kPa) 3.582 ± 0.048 mPa·s. The viscosity (318.15 K, 101 kPa) came out at 2.943 ± 0.038 mPa·s.

`CCCCn1cc[n+](C)c1.F[B-](F)(F)F`: the viscosity is, setting by setting: (293.15 K, 101 kPa) 133.5 ± 4.5 mPa·s and 127.6 ± 8.5 mPa·s; (293.15 K, 101.33 kPa) 125.3 ± 19 mPa·s; (295.2 K, 101 kPa) 122.9 ± 19 mPa·s; (303.15 K, 101.33 kPa) 81.85 ± 3.4 mPa·s and 87.7 ± 13 mPa·s; (308.15 K, 101 kPa) 65 ± 1.3 mPa·s and 61.5 ± 7.9 mPa·s and 58.36 ± 3.5 mPa·s; (308.15 K, 101.33 kPa) 63.57 ± 2.6 mPa·s and 72.5 ± 11 mPa·s. Besides, the viscosity reads like this: (313.15 K, 101 kPa) 52.2 ± 1.1 mPa·s and 50.52 ± 0.74 mPa·s and 46.22 ± 2.8 mPa·s; (313.15 K, 101.33 kPa) 57.7 ± 8.7 mPa·s; (318.15 K, 101 kPa) 42.6 ± 0.9 mPa·s and 38.72 ± 2.3 mPa·s; (323.15 K, 101 kPa) 34.52 ± 0.56 mPa·s; (323.15 K, 101.33 kPa) 34.8 ± 1.4 mPa·s.

Turning to `CCC[n+]1ccn(C)c1C.O=S(=O)([N-]S(=O)(=O)C(F)(F)F)C(F)(F)F`, the viscosity (298.15 K, 101 kPa) was found to be 85.6 ± 2.5 mPa·s.

As for `Cc1ccc(O)cc1`, the viscosity was 18.95 ± 0.32 mPa·s (293.15 K, 101 kPa); 13.93 ± 0.99 mPa·s and 14.74 ± 0.24 mPa·s (298.15 K, 101 kPa); 6.661 ± 0.081 mPa·s (313.15 K, 101.3 kPa); 5.795 ± 0.48 mPa·s and 5.292 ± 0.039 mPa·s (2×) (318.15 K, 101 kPa); 4.48 ± 0.056 mPa·s (323.15 K, 101.3 kPa); 4.62 ± 0.046 mPa·s (323.15 K, 101.33 kPa).

On to `Cc1cccc(C)c1`, for which the viscosity was 0.614 ± 0.03 mPa·s (293.15 K, 100 kPa); 0.5522 ± 0.0085 mPa·s and 0.627 ± 0.013 mPa·s (293.15 K, 101 kPa); 0.5821 ± 0.0073 mPa·s and 0.5848 ± 0.016 mPa·s (298.15 K, 101 kPa); 0.586 ± 0.016 mPa·s and 0.58 ± 0.016 mPa·s (298.15 K, 101.3 kPa); 0.5456 ± 0.0046 mPa·s and 0.5455 ± 0.0046 mPa·s (303 K, 101 kPa); 0.543 ± 0.015 mPa·s and 0.548 ± 0.015 mPa·s and 0.5471 ± 0.015 mPa·s (303.15 K, 101.3 kPa). For the same compound, the viscosity is, setting by setting: (303.15 K, 101.33 kPa) 0.555 ± 0.006 mPa·s; (308.15 K, 100 kPa) 0.4712 ± 0.057 mPa·s; (308.15 K, 101 kPa) 0.5329 ± 0.0055 mPa·s; (308.15 K, 101.3 kPa) 0.519 ± 0.015 mPa·s; (308.15 K, 101.33 kPa) 0.5218 ± 0.0067 mPa·s and 0.542 ± 0.004 mPa·s and 0.527 ± 0.005 mPa·s; (308.5 K, 101 kPa) 0.547 ± 0.015 mPa·s. In addition, the viscosity was 0.4931 ± 0.0042 mPa·s and 0.492 ± 0.0042 mPa·s (313 K, 101 kPa); 0.492 ± 0.03 mPa·s (313.15 K, 100 kPa); 0.4463 ± 0.0073 mPa·s and 0.522 ± 0.014 mPa·s and 0.4923 ± 0.0091 mPa·s (313.15 K, 101 kPa); 0.49 ± 0.014 mPa·s (313.15 K, 101.3 kPa); 0.4487 ± 0.0039 mPa·s (323 K, 101 kPa); 0.3949 ± 0.0068 mPa·s and 0.4488 ± 0.013 mPa·s (323.15 K, 101 kPa). Under “323.15 K, 101.3 kPa”, the viscosity was found to be 0.439 ± 0.013 mPa·s.

As for `Cc1ccccc1N`, the viscosity was 3.718 ± 0.079 mPa·s (298.15 K, 100 kPa); 3.645 ± 0.097 mPa·s (298.15 K, 101 kPa); 3.258 ± 0.065 mPa·s and 3.258 ± 0.07 mPa·s and 3.26 ± 0.1 mPa·s (303.15 K, 100 kPa); 3.1 ± 0.08 mPa·s (303.15 K, 101 kPa); 2.824 ± 0.064 mPa·s and 2.824 ± 0.061 mPa·s and 2.82 ± 0.09 mPa·s (308.15 K, 100 kPa); 2.487 ± 0.063 mPa·s and 2.487 ± 0.053 mPa·s and 2.49 ± 0.08 mPa·s (313.15 K, 100 kPa). In addition, the viscosity (318.15 K, 100 kPa) is 2.153 ± 0.063 mPa·s and 2.153 ± 0.047 mPa·s and 2.15 ± 0.07 mPa·s.

As for `ClC(Cl)(Cl)c1ccccc1`, the viscosity (298.15 K, 101.33 kPa) is listed as 2.18 ± 0.019 mPa·s.

Turning to `NCCCO`, the viscosity (303.15 K, 101 kPa) is 24.12 ± 0.43 mPa·s; the viscosity (308.15 K, 101 kPa) turned out to be 18.98 ± 0.34 mPa·s; the viscosity (318.15 K, 101 kPa) turned out to be 12.35 ± 0.51 mPa·s.

For the compound `Nc1ccccc1Cl`, the viscosity reads like this: (298.15 K, 100 kPa) 4.209 ± 0.089 mPa·s; (298.15 K, 101 kPa) 2.973 ± 0.029 mPa·s and 2.974 ± 0.027 mPa·s; (303.15 K, 100 kPa) 3.825 ± 0.081 mPa·s; (308.15 K, 100 kPa) 3.413 ± 0.072 mPa·s; (313.15 K, 100 kPa) 3.06 ± 0.065 mPa·s; (318.15 K, 100 kPa) 2.762 ± 0.059 mPa·s.

Under “298.15 K, 101 kPa”, `O=S(=O)(Cl)Cl` yielded a viscosity of 0.685 ± 0.018 mPa·s.

On to `O=S1(=O)CCCC1`, for which the viscosity by setting is: (298.15 K, 101.3 kPa) 10.28 ± 0.13 mPa·s; (308.15 K, 100 kPa) 8.795 ± 0.17 mPa·s; (308.15 K, 101.3 kPa) 8.258 ± 0.11 mPa·s; (318.15 K, 101 kPa) 7.18 ± 0.72 mPa·s and 7.17 ± 0.74 mPa·s and 6.912 ± 0.037 mPa·s; (318.15 K, 101.3 kPa) 6.256 ± 0.085 mPa·s; (323.15 K, 101.33 kPa) 6.346 ± 0.032 mPa·s.

With `OC1COCOC1`, the viscosity runs as follows: (298.15 K, 101 kPa) 13.11 ± 0.29 mPa·s; (308.15 K, 101 kPa) 8.963 ± 0.2 mPa·s; (318.15 K, 101 kPa) 6.508 ± 0.15 mPa·s and 6.58 ± 0.15 mPa·s.

Regarding `c1ccc2sccc2c1`, the viscosity worked out at 2.94 ± 0.4 mPa·s (308.15 K, 101 kPa) and 2.06 ± 0.13 mPa·s (318.15 K, 101 kPa).

In general, viscosity refers to the internal friction of a fluid under shear. Low readings indicate a thin fluid, high ones a thick fluid.
